# Laboratory results as given in paper PMC5125695, “Antiviral Efficacy of Verdinexor In Vivo in Two Animal Models of Influenza A Virus Infection” (PLoS ONE, 2016).
# “Also recorded” adds a separate entry of the source.
# Test system: Influenza A/WSN/33
# Format: cell-based
structure (smiles),measurement,value
O=C(/C=C\n1cnc(-c2cc(C(F)(F)F)cc(C(F)(F)F)c2)n1)NNc1ccccn1 [verdinexor],Sensitivity of passaged virus to verdinexor,did not result in a reduction of drug sensitivity; also recorded: remained sensitive
